In patent US11053204B2, “Pyrimidinyloxy benzene derivatives as herbicides” (FMC Corporation, priority 2015, dated 2021):

Tests used:
Format in all cases: in vivo
[1] = tested on: johnsongrass (Sorghum halepense); test: Test C preemergence, plant response rating
[2] = tested on: oat, wild (wild oat Avena fatua); test: Test C preemergence, plant response rating
[3] = tested on: wild poinsettia (Euphorbia heterophylla); test: Test C preemergence, plant response rating
[4] = tested on: galium (catchweed bedstraw, Galium aparine); test: Test C preemergence, plant response rating
[5] = tested on: field violet (Viola arvensis); test: Test C postemergence, plant response rating; settings: for Field Violet plant response rating: scale 0 to 100 (0 no effect, 100 complete control)
Method in brief: (§1)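 After sowing in loam–sand blend or silt loam, pots were sprayed preemergence; separately grown 1- to 4-leaf plants were sprayed postemergence. Following 13 to 15 d under greenhouse conditions, injury was rated visually on a 0 to 100 scale.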

[6] = tested on: windgrass (Apera spica-venti); test: Test C postemergence, plant response rating; settings: for Windgrass plant response rating: 125 g ai/ha, scale 0 to 100 (0 no effect, 100 complete control)
Method in brief: as §1

[7] = tested on: nightshade (eastern black nightshade, Solanum ptycanthum); test: Test C postemergence, plant response rating; settings: for Nightshade plant response rating: scale 0 to 100 (0 no effect, 100 complete control)
Method in brief: as §1

[8] = tested on: geranium, cutleaf (cutleaf geranium, Geranium dissectum); test: Test C postemergence, plant response rating; settings: for Geranium, Cutleaf plant response rating: scale 0 to 100 (0 no effect, 100 complete control)
Method in brief: as §1

[9] = tested on: field poppy (Papaver rhoeas); test: Test C postemergence, plant response rating; settings: for Field Poppy plant response rating: scale 0 to 100 (0 no effect, 100 complete control)
Method in brief: as §1

[10] = tested on: surinam grass (Brachiaria decumbens); test: Test C postemergence, plant response rating; settings: for Surinam Grass plant response rating: 125 g ai/ha, scale 0 to 100 (0 no effect, 100 complete control)
Method in brief: as §1

[11] = tested on: speedwell (bird's-eye speedwell, Veronica persica); test: Test C postemergence, plant response rating; settings: for Speedwell plant response rating: scale 0 to 100 (0 no effect, 100 complete control)
Method in brief: as §1

[12] = tested on: johnsongrass (Sorghum halepense); test: Test C postemergence, plant response rating; settings: for Johnsongrass plant response rating: scale 0 to 100 (0 no effect, 100 complete control)
Method in brief: as §1

[13] = tested on: pigweed, palmer (palmer pigweed, Amaranthus palmeri); test: Test C postemergence, plant response rating; settings: for Pigweed, Palmer plant response rating: scale 0 to 100 (0 no effect, 100 complete control)
Method in brief: as §1

[14] = tested on: wild poinsettia (Euphorbia heterophylla); test: Test C postemergence, plant response rating; settings: for Poinsettia, Wild plant response rating: scale 0 to 100 (0 no effect, 100 complete control)
Method in brief: as §1

[15] = tested on: buckwheat, wild (wild buckwheat, Polygonum convolvulus); test: Test C postemergence, plant response rating; settings: for Buckwheat, Wild plant response rating: scale 0 to 100 (0 no effect, 100 complete control)
Method in brief: as §1

[16] = tested on: Canada thistle (Cirsium arvense); test: Test C postemergence, plant response rating; settings: for Canada Thistle plant response rating: scale 0 to 100 (0 no effect, 100 complete control)
Method in brief: as §1

[17] = tested on: windgrass (Apera spica-venti); test: Test C preemergence, plant response rating

CCCCC(=O)c1c(Oc2ncc(Cl)cn2)cccc1C(F)(F)F [Compound 130]
Plant response rating, Johnsongrass ([1]; 31 g ai/ha, scale 0 to 100): 10
Plant response rating, Johnsongrass ([1]; 62 g ai/ha, scale 0 to 100): 70
Plant response rating, Johnsongrass ([1]; 125 g ai/ha, scale of 0 to 100): 85
Plant response rating, Oat, Wild ([2]; 31 g ai/ha, scale 0 to 100): 15
Plant response rating, Oat, Wild ([2]; 62 g ai/ha, scale 0 to 100): 35
Plant response rating, Oat, Wild ([2]; 125 g ai/ha, scale of 0 to 100): 60
Plant response rating, Poinsettia, Wild ([3]; 31 g ai/ha, scale 0 to 100): 0
Plant response rating, Poinsettia, Wild ([3]; 62 g ai/ha, scale 0 to 100): 10
Plant response rating, Poinsettia, Wild ([3]; 125 g ai/ha, scale of 0 to 100): 45
Plant response rating, Galium ([4]; 31 g ai/ha, scale 0 to 100): 50
Plant response rating, Galium ([4]; 62 g ai/ha, scale 0 to 100): 90
Plant response rating, Galium ([4]; 125 g ai/ha, scale of 0 to 100): 90
Plant response rating, Field Violet ([5]; 16 g ai/ha, scale of 0 to 100): 80
Plant response rating, Field Violet ([5]; 31 g ai/ha, scale 0 to 100): 85
Field Violet plant response rating ([5]; 62 g ai/ha): 95
Field Violet plant response rating ([5]; 125 g ai/ha): 100
Plant response rating, Windgrass ([6]; 16 g ai/ha, scale of 0 to 100): 10
Plant response rating, Windgrass ([6]; 31 g ai/ha, scale 0 to 100): 15
Windgrass plant response rating [6]: 35
Plant response rating, Nightshade ([7]; 16 g ai/ha, scale of 0 to 100): 75
Plant response rating, Nightshade ([7]; 31 g ai/ha, scale 0 to 100): 80
Nightshade plant response rating ([7]; 62 g ai/ha): 85
Nightshade plant response rating ([7]; 125 g ai/ha): 90
Plant response rating, Geranium, Cutleaf ([8]; 16 g ai/ha, scale of 0 to 100): 25
Plant response rating, Geranium, Cutleaf ([8]; 31 g ai/ha, scale 0 to 100): 35
Geranium, Cutleaf plant response rating ([8]; 62 g ai/ha): 45
Geranium, Cutleaf plant response rating ([8]; 125 g ai/ha): 60
Plant response rating, Field Poppy ([9]; 16 g ai/ha, scale of 0 to 100): 100
Plant response rating, Field Poppy ([9]; 31 g ai/ha, scale 0 to 100): 100
Field Poppy plant response rating ([9]; 62 g ai/ha): 100
Field Poppy plant response rating ([9]; 125 g ai/ha): 100
Plant response rating, Surinam Grass ([10]; 16 g ai/ha, scale of 0 to 100): 10
Plant response rating, Surinam Grass ([10]; 31 g ai/ha, scale 0 to 100): 10
Surinam Grass plant response rating [10]: 20
Plant response rating, Speedwell ([11]; 16 g ai/ha, scale of 0 to 100): 80
Plant response rating, Speedwell ([11]; 31 g ai/ha, scale 0 to 100): 85
Speedwell plant response rating ([11]; 62 g ai/ha): 98
Speedwell plant response rating ([11]; 125 g ai/ha): 98
Plant response rating, Johnsongrass ([12]; 16 g ai/ha, scale of 0 to 100): 5
Plant response rating, Johnsongrass ([12]; 31 g ai/ha, scale 0 to 100): 5
Johnsongrass plant response rating ([12]; 62 g ai/ha): 10
Johnsongrass plant response rating ([12]; 125 g ai/ha): 15
Plant response rating, Pigweed, Palmer ([13]; 16 g ai/ha, scale of 0 to 100): 35
Plant response rating, Pigweed, Palmer ([13]; 31 g ai/ha, scale 0 to 100): 65
Pigweed, Palmer plant response rating ([13]; 62 g ai/ha): 45
Pigweed, Palmer plant response rating ([13]; 125 g ai/ha): 65
Plant response rating, Poinsettia, Wild ([14]; 16 g ai/ha, scale of 0 to 100): 55
Plant response rating, Poinsettia, Wild ([14]; 31 g ai/ha, scale 0 to 100): 70
Poinsettia, Wild plant response rating ([14]; 62 g ai/ha): 60
Poinsettia, Wild plant response rating ([14]; 125 g ai/ha): 75
Plant response rating, Buckwheat, Wild ([15]; 16 g ai/ha, scale of 0 to 100): 35
Plant response rating, Buckwheat, Wild ([15]; 31 g ai/ha, scale 0 to 100): 90
Buckwheat, Wild plant response rating ([15]; 62 g ai/ha): 75
Buckwheat, Wild plant response rating ([15]; 125 g ai/ha): 80
Plant response rating, Canada Thistle ([16]; 16 g ai/ha, scale of 0 to 100): 75
Plant response rating, Canada Thistle ([16]; 31 g ai/ha, scale 0 to 100): 75
Canada Thistle plant response rating ([16]; 62 g ai/ha): 98
Canada Thistle plant response rating ([16]; 125 g ai/ha): 98
Plant response rating, Windgrass ([17]; 31 g ai/ha, scale 0 to 100): 70
Plant response rating, Windgrass ([17]; 62 g ai/ha, scale 0 to 100): 100
Plant response rating, Windgrass ([17]; 125 g ai/ha, scale of 0 to 100): 100

CCCC(=O)c1c(Oc2ncc(Cl)cn2)cccc1C(F)(F)F [Compound 136]
Plant response rating, Johnsongrass ([1]; 31 g ai/ha, scale 0 to 100): 25
Plant response rating, Johnsongrass ([1]; 62 g ai/ha, scale 0 to 100): 35
Plant response rating, Johnsongrass ([1]; 125 g ai/ha, scale of 0 to 100): 70
Plant response rating, Oat, Wild ([2]; 31 g ai/ha, scale 0 to 100): 0
Plant response rating, Oat, Wild ([2]; 62 g ai/ha, scale 0 to 100): 5
Plant response rating, Oat, Wild ([2]; 125 g ai/ha, scale of 0 to 100): 45
Plant response rating, Poinsettia, Wild ([3]; 31 g ai/ha, scale 0 to 100): 5
Plant response rating, Poinsettia, Wild ([3]; 62 g ai/ha, scale 0 to 100): 25
Plant response rating, Poinsettia, Wild ([3]; 125 g ai/ha, scale of 0 to 100): 50
Plant response rating, Galium ([4]; 31 g ai/ha, scale 0 to 100): 0
Plant response rating, Galium ([4]; 62 g ai/ha, scale 0 to 100): 50
Plant response rating, Galium ([4]; 125 g ai/ha, scale of 0 to 100): 90
Plant response rating, Field Violet ([5]; 16 g ai/ha, scale of 0 to 100): 85
Plant response rating, Field Violet ([5]; 31 g ai/ha, scale 0 to 100): 90
Field Violet plant response rating ([5]; 62 g ai/ha): 95
Field Violet plant response rating ([5]; 125 g ai/ha): 100
Plant response rating, Windgrass ([6]; 16 g ai/ha, scale of 0 to 100): 5
Plant response rating, Windgrass ([6]; 31 g ai/ha, scale 0 to 100): 10
Windgrass plant response rating [6]: 30
Plant response rating, Nightshade ([7]; 16 g ai/ha, scale of 0 to 100): 70
Plant response rating, Nightshade ([7]; 31 g ai/ha, scale 0 to 100): 75
Nightshade plant response rating ([7]; 62 g ai/ha): 70
Nightshade plant response rating ([7]; 125 g ai/ha): 80
Plant response rating, Geranium, Cutleaf ([8]; 16 g ai/ha, scale of 0 to 100): 15
Plant response rating, Geranium, Cutleaf ([8]; 31 g ai/ha, scale 0 to 100): 25
Geranium, Cutleaf plant response rating ([8]; 62 g ai/ha): 50
Geranium, Cutleaf plant response rating ([8]; 125 g ai/ha): 45
Plant response rating, Field Poppy ([9]; 16 g ai/ha, scale of 0 to 100): 65
Plant response rating, Field Poppy ([9]; 31 g ai/ha, scale 0 to 100): 85
Field Poppy plant response rating ([9]; 62 g ai/ha): 80
Field Poppy plant response rating ([9]; 125 g ai/ha): 90
Plant response rating, Surinam Grass ([10]; 16 g ai/ha, scale of 0 to 100): 5
Plant response rating, Surinam Grass ([10]; 31 g ai/ha, scale 0 to 100): 5
Surinam Grass plant response rating [10]: 10
Plant response rating, Speedwell ([11]; 16 g ai/ha, scale of 0 to 100): 75
Plant response rating, Speedwell ([11]; 31 g ai/ha, scale 0 to 100): 80
Speedwell plant response rating ([11]; 62 g ai/ha): 80
Speedwell plant response rating ([11]; 125 g ai/ha): 85
Plant response rating, Johnsongrass ([12]; 16 g ai/ha, scale of 0 to 100): 5
Plant response rating, Johnsongrass ([12]; 31 g ai/ha, scale 0 to 100): 5
Johnsongrass plant response rating ([12]; 62 g ai/ha): 10
Johnsongrass plant response rating ([12]; 125 g ai/ha): 15
Plant response rating, Pigweed, Palmer ([13]; 16 g ai/ha, scale of 0 to 100): 50
Plant response rating, Pigweed, Palmer ([13]; 31 g ai/ha, scale 0 to 100): 55
Pigweed, Palmer plant response rating ([13]; 62 g ai/ha): 70
Pigweed, Palmer plant response rating ([13]; 125 g ai/ha): 70
Plant response rating, Poinsettia, Wild ([14]; 16 g ai/ha, scale of 0 to 100): 40
Plant response rating, Poinsettia, Wild ([14]; 31 g ai/ha, scale 0 to 100): 65
Poinsettia, Wild plant response rating ([14]; 62 g ai/ha): 70
Poinsettia, Wild plant response rating ([14]; 125 g ai/ha): 75
Plant response rating, Buckwheat, Wild ([15]; 16 g ai/ha, scale of 0 to 100): 50
Plant response rating, Buckwheat, Wild ([15]; 31 g ai/ha, scale 0 to 100): 60
Buckwheat, Wild plant response rating ([15]; 62 g ai/ha): 90
Buckwheat, Wild plant response rating ([15]; 125 g ai/ha): 80
Plant response rating, Canada Thistle ([16]; 16 g ai/ha, scale of 0 to 100): 65
Plant response rating, Canada Thistle ([16]; 31 g ai/ha, scale 0 to 100): 75
Canada Thistle plant response rating ([16]; 62 g ai/ha): 85
Canada Thistle plant response rating ([16]; 125 g ai/ha): 85
Plant response rating, Windgrass ([17]; 31 g ai/ha, scale 0 to 100): 30
Plant response rating, Windgrass ([17]; 62 g ai/ha, scale 0 to 100): 85
Plant response rating, Windgrass ([17]; 125 g ai/ha, scale of 0 to 100): 100
